Common to all, as to type: cell-based
Test [1] deals with T1, pEGFR, NCI-H1975 cells (L858R/T790M EGFR) (Homo sapiens, UniProt P00533, L858R/T790M).
T1 construct: pEGFR (Tyr1068) TR-FRET
In words: Cellular EGFR phosphorylation assay (LANCE Ultra TR-FRET) in NCI-H1975 cells. An outline of the steps:
(§1)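 Measured in intact cells exposed to compound for 4 hours, with A431 given EGF at 40 ng/mL for the closing 10 minutes; a TR-FRET antibody pair quantified phospho-Tyr1068 EGFR in lysates (4-6 h detection at room temperature), giving IC50.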
(In general: In TR-FRET formats the signal depends on donor and acceptor labels being close together.)

Test [2] deals with NCI-H1975 cells. In words: 5-Day CellTiter Glo (CTG) cell proliferation assay, NCI-H1975. The note with it: Homo sapiens; NCI-H1975 cells (L858R/T790M EGFR), 5-day CTG proliferation, 120 hours; read-out: H1975 IC50. In outline:
(§2)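 Luminescent ATP signal (CellTiter-Glo 2.0) after 120 hours of compound exposure gave IC50 values. PC-9 and HCC827 harbour EGFR d746-750; NCI-H1975 harbours L858R/T790M.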
(In general: In ATP-based viability assays light output follows the ATP content of the culture.)

Test [3] concerns PC-9 cells. In words: 5-Day CellTiter Glo (CTG) cell proliferation assay, PC-9. The note with it: Homo sapiens; PC-9 cells (d746-750 EGFR), 5-day CTG proliferation, 120 hours; read-out: PC-9 IC50. In outline:
as §2

Test [4] relates to HCC827 cells. The test is described as follows: 5-Day CellTiter Glo (CTG) cell proliferation assay, HCC827. The conditions noted are these: Homo sapiens; HCC827 cells (d746-750 EGFR), 5-day CTG proliferation, 120 hours; read-out: HCC827 IC50. In outline:
as §2

Test [5] addresses T2, pEGFR, PC-9 cells (d746-750 EGFR) (Homo sapiens, UniProt P00533, DEL746-750).
T2 construct: pEGFR (Tyr1068) TR-FRET
In words: Cellular EGFR phosphorylation assay (LANCE Ultra TR-FRET) in PC-9 cells. In outline: as §1

Test [6] concerns BaF3 cells with engineered EGFR L858R/C797S. In words: 3-Day CellTiter Glo (CTG) cell proliferation assay, BaF3 EGFR L858R/C797S. The conditions noted are these: Mus musculus, 3-day CTG proliferation, 72 hours. On the procedure:
(§3) 3-DAY CellTiter Glo (CTG) Cell Proliferation Assays (BaF3 Cell Lines)
(§4) Cell proliferation assays were carried out in BaF3 cells engineered with EGFR mutations. BaF3 cells with engineered EGFR L858R/T790M/C797S, EGFR L858R/C797S, or EGFR d746-750/T790M transgene, one thousand cells/50 μL per well were seeded in white 384-well plate, followed by treatment with indicated compounds in a 9-dose dilution series using TECAN d300e liquid dispenser. Cells were incubated with compounds for 72 hours at 37° C. and 5% CO2. Cell proliferation was measured using CellTiter-Gbo 2.0 luciferase-based ATP detection assay (Promega, Madison, WI) at 18 μL per well following the manufacturer's protocol. Plates were then read on a TECAN Sparks multimode microplate reader. Data was analyzed using GraphPad Prism 9 (GraphiPad Software, San Diego, CA) to obtain IC50 values.

Test [7] relates to BaF3 cells with engineered EGFR d746-750/T790M. The test is described as follows: 3-Day CellTiter Glo (CTG) cell proliferation assay, BaF3 EGFR d746-750/T790M. The note with it: Mus musculus; BaF3 EGFR d746-750/T790M cells, 3-day CTG proliferation, 72 hours. On the procedure: as §3, §4
Test [8] has as its system BaF3 cells with engineered EGFR L858R/T790M/C797S. The test is described as follows: 3-Day CellTiter Glo (CTG) cell proliferation assay, BaF3 EGFR L858R/T790M/C797S. The note with it: Mus musculus, 3-day CTG proliferation, 72 hours. The method, then: as §3, §4
In test [9] the target is T3, pEGFR, A431 cells (wildtype EGFR) (Homo sapiens, UniProt P00533).
T3 construct: pEGFR (Tyr1068) TR-FRET
T3 sequence (P00533 25-1210): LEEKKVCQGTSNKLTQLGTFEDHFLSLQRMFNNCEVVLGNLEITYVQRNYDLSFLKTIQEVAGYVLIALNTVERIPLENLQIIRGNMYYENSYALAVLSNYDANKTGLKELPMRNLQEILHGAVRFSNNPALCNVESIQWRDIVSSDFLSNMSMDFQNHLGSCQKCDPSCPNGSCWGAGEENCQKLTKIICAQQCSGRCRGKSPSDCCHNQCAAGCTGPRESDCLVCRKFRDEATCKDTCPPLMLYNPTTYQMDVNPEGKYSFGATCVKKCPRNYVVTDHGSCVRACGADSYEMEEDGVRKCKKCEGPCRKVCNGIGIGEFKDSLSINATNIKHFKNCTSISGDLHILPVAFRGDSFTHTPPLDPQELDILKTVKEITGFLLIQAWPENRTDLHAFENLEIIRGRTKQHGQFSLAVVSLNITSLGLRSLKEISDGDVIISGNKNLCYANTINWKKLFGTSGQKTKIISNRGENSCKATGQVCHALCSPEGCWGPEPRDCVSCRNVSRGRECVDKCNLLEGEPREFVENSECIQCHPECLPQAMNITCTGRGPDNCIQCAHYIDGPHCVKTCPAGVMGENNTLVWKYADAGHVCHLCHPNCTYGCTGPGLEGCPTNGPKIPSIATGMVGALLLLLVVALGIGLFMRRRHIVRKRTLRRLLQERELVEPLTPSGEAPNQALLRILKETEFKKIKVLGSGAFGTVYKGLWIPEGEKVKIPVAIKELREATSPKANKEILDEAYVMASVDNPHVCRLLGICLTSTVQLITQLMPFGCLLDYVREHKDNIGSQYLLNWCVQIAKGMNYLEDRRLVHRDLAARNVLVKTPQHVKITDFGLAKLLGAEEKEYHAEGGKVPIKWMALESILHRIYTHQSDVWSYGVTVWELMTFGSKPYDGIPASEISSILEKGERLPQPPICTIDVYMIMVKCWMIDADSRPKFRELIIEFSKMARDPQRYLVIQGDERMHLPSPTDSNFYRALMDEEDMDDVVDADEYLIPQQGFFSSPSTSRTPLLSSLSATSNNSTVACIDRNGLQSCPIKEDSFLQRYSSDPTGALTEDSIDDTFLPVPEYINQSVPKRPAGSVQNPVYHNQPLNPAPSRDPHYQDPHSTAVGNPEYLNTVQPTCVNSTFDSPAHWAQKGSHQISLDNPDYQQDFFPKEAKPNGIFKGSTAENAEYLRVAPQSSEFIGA
The test is described as follows: Cellular EGFR phosphorylation assay (LANCE Ultra TR-FRET) in A431 cells. An outline of the steps: as §1

The mark [10] stands for this setting: 4 hours at 37° C., read-out: H1975 pEGFR IC50.
[11] abbreviates: 4 hours at 37° C., read-out: PC-9 pEGFR IC50.
The mark [12] stands for this setting: 4 hours at 37° C., 40 ng/mL EGF for the final 10 minutes, read-out: A431 pEGFR IC50.

Read-outs that look alike come from different tables or passages of the source.

T2 sequence (P00533 with tags, fused parts or gaps DEL746-750): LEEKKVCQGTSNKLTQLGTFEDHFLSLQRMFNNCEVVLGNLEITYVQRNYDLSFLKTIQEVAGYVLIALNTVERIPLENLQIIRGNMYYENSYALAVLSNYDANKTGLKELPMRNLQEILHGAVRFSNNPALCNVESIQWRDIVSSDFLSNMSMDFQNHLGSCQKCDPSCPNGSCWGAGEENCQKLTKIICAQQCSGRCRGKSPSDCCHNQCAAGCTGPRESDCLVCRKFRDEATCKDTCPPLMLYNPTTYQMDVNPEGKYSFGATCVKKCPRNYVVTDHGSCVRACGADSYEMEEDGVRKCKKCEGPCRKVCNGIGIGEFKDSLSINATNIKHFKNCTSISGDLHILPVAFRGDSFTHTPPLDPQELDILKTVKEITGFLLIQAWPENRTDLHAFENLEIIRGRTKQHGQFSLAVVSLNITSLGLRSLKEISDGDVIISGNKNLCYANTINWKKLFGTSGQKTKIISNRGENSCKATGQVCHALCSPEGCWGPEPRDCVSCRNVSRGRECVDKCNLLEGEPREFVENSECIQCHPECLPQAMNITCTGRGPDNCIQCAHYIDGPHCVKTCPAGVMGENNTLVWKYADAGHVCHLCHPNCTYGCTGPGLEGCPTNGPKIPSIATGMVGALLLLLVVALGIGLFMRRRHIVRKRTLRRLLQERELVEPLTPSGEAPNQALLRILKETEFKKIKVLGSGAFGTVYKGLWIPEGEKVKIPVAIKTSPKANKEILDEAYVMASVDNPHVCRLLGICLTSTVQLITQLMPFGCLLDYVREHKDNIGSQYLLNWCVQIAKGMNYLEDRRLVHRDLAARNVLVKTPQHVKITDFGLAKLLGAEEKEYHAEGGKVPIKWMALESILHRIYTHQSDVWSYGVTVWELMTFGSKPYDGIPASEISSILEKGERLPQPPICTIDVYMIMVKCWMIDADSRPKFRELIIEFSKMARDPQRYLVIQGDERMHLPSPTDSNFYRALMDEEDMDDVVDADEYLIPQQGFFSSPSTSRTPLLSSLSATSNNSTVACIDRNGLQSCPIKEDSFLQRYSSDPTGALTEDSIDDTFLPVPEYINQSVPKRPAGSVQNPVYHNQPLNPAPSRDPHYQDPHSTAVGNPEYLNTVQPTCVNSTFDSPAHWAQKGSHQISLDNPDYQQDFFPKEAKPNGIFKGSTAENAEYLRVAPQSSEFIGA
T1 sequence (P00533 25-1210 T790M/L858R): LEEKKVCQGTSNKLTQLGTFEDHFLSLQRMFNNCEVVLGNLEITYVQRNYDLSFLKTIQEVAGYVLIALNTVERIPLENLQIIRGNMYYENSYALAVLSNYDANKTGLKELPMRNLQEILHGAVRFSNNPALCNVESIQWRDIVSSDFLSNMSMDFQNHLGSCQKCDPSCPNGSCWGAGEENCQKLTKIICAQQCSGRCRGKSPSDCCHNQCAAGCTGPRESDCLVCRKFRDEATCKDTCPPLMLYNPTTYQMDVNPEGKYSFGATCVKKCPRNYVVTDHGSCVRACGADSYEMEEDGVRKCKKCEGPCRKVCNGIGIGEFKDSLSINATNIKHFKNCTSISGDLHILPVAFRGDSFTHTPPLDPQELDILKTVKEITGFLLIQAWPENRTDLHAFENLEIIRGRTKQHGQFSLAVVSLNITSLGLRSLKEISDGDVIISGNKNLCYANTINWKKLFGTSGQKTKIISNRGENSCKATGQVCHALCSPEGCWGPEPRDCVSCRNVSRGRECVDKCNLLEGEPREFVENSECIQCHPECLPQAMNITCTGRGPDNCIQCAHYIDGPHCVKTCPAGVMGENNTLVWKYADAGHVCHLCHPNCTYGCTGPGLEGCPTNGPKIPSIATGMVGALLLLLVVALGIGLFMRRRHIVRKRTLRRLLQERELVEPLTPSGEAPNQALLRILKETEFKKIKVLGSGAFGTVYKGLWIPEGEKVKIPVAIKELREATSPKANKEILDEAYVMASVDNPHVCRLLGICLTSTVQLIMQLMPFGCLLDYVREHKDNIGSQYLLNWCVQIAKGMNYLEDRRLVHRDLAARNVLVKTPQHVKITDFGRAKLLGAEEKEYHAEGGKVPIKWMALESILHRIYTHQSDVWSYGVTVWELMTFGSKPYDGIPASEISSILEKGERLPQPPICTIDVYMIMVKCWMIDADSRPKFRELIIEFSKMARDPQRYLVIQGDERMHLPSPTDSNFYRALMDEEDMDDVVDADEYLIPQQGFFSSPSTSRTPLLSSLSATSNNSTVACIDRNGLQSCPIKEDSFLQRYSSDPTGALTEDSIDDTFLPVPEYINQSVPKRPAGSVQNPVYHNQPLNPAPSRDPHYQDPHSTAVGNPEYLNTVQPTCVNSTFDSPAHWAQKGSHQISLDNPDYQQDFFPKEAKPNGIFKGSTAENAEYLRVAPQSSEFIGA

As for `CCOc1nn([C@@H](C)CO)c2c1/C=C/c1n[nH]c3cnc(cc13)-c1c(C)nn(C)c1OC[C@@H](C)N(C1CC1)C2` [Ex. 111, (2S)-2-[(11R,17E)-12-cyclopropyl-16-ethoxy-6,8,11-trimethyl-2,8,10,11,12,13-hexahydro-14H-5,3-(azenometheno)tripyrazolo[3,4-f:3′,4′-j:4″,3″-n][1,4]oxazacyclopentadecin-14-yl]propan-1-ol], the IC50 in test [1] (setting [10]) is 2.08 nM; in [2], 3.12 nM; in test [3], 1.52 nM; in test [4], 0.43 nM; in test [5] (setting [11]), 1.06 nM; in test [6], 0.11 nM. Further, the IC50 in test [7] was 0.78 nM; in [8], 1.11 nM; in [9] (setting [12]), 1.46 nM.

With `CCOc1nn([C@@H](C)CO)c2c1/C=C/c1n[nH]c3cnc(cc13)-c1c(CC)nn(C)c1O[C@@H](C)CN(C)C2` [Ex. 82, (2S)-2-[(10S,17E)-16-ethoxy-6-ethyl-8,10,12-trimethyl-2,8,10,11,12,13-hexahydro-14H-5,3-(azenometheno)tripyrazolo[3,4-f:3′,4′-j:4″,3″-n][1,4]oxazacyclopentadecin-14-yl]propan-1-ol], the IC50 in [1] (setting [10]) was determined as 15 nM; in [2], 207 nM; in [3], 1.54 nM; in test [4] it was 0.85 nM; in test [5] (setting [11]) it was 2.35 nM; in test [6], 0.12 nM. Moreover, the IC50 in test [7] is 66.3 nM; in [8], 4.4 nM; in test [9] (setting [12]), 24.7 nM.

For `CCNc1nn([C@@H](C)CO)c2c1/C=C/c1n[nH]c3c(C)nc(cc13)-c1c(C)nn(C)c1O[C@@H](C)CN(C)C2` [Ex. 94, (2S)-2-[(10S,17E)-16-(ethylamino)-6,8,10,12,20-pentamethyl-2,8,10,11,12,13-hexahydro-14H-5,3-(azenometheno)tripyrazolo[3,4-f:3′,4′-j:4″,3″-n][1,4]oxazacyclopentadecin-14-yl]propan-1-ol], the IC50 came to 1.55 nM in [1] (read-out: H1975 pEGFR IC50, 4 hours at 37° C.); 1.76 nM in [2]; 3.52 nM in test [3]; 0.71 nM in [4]; 2.31 nM in test [5] (read-out: PC-9 pEGFR IC50, 4 hours at 37° C.); 0.09 nM in test [6]. For the same compound, the IC50 was 1.23 nM in [7]; 0.93 nM in [8]; 17.8 nM in test [9] (read-out: A431 pEGFR IC50, 4 hours at 37° C., 40 ng/mL EGF for the final 10 minutes).

As to `CCOc1nn([C@@H](C)CO)c2c1/C=C/c1n[nH]c3c(C)nc(cc13)-c1c(C)nn(C)c1O[C@H](C)CN(C)C2` [Ex. 98], the IC50 in test [1] (setting [10]) stood at 1.9 nM; in test [2], 3.34 nM; in test [3], 5.71 nM; in [4], 1.35 nM; in test [5] (setting [11]), 3.62 nM; in test [6], 0.24 nM. Further, the IC50 turned out to be 1.01 nM in test [7], 0.74 nM in test [8] and 16.8 nM in test [9] (setting [12]).

As to `CCOc1nn([C@@H](C)CO)c2c1/C=C/c1n[nH]c3cnc(cc13)-c1c(C)nn(C)c1OC[C@@H](C)N(C)C2` [Ex. 97, (2S)-2-[(11R,17E)-16-ethoxy-6,8,11,12-tetramethyl-2,8,10,11,12,13-hexahydro-14H-5,3-(azenometheno)tripyrazolo[3,4-f:3′,4′-j:4″,3″-n][1,4]oxazacyclopentadecin-14-yl]propan-1-ol], the IC50 in [1] (setting [10]) came out at 1.62 nM; in test [2], 1.77 nM; in test [3], 1.39 nM; in [4] it was 0.2 nM; in [5] (setting [11]), 1.08 nM; in test [6], 0.04 nM. Besides, the IC50 in test [7] was determined as 0.4 nM; in test [8] it was 0.43 nM; in test [9] (setting [12]) it was 11 nM.

For `CCOc1nn(C[C@H](C)O)c2c1/C=C/c1n[nH]c3cnc(cc13)-c1c(C)nn(C)c1O[C@@H](C)CN(C)C2` [Ex. 86, (2S)-1-[(10S,17E)-16-ethoxy-6,8,10,12-tetramethyl-2,8,10,11,12,13-hexahydro-14H-5,3-(azenometheno)tripyrazolo[3,4-f:3′,4′-j:4″,3″-n][1,4]oxazacyclopentadecin-14-yl]propan-2-ol], the IC50 in test [1] (setting [10]) turned out to be 1.57 nM; in test [2], 1.11 nM; in test [3] it was 0.68 nM; in test [4] it was 0.3 nM; in [5] (setting [11]), 1.09 nM; in test [6], 0.04 nM. For the same compound, the IC50 turned out to be 0.69 nM in test [7], 0.54 nM in test [8] and 7.67 nM in test [9] (setting [12]).

For `CCOc1nn(CCO)c2c1/C=C/c1n[nH]c3c(C)nc(cc13)-c1c(C)nn(C)c1O[C@H](C)[C@H]1CCCN1C2` [Ex. 178], the IC50 in test [1] (setting [10]) came out at 1.29 nM; in [2], 0.93 nM; in test [3], 1.02 nM; in test [4], 0.39 nM; in test [5] (setting [11]), 0.81 nM; in test [6], 0.06 nM. The figures for the IC50 in test [7], in test [8] and in [9] (setting [12]) were 0.67 nM, 0.59 nM and 12.5 nM, respectively.

Take `CCOc1nn([C@H](C)CO)c2c1/C=C/c1n[nH]c3c(C)nc(cc13)-c1c(C)nn(C)c1O[C@@H](C)CN(C)C2` [Ex. 95, (2R)-2-[(10S,17E)-16-ethoxy-6,8,10,12,20-pentamethyl-2,8,10,11,12,13-hexahydro-14H-5,3-(azenometheno)tripyrazolo[3,4-f:3′,4′-j:4″,3″-n][1,4]oxazacyclopentadecin-14-yl]propan-1-ol]: the IC50 in test [1] (setting [10]) is 1.76 nM; in [2], 2.86 nM; in test [3], 5.19 nM; in [4], 1.15 nM; in [5] (setting [11]), 3.35 nM; in test [6], 0.13 nM. The IC50 was 2.14 nM in test [7], 0.74 nM in test [8] and 17.7 nM in test [9] (setting [12]).

As for `CCOc1nn(CCO)c2c1/C=C/c1n[nH]c3cnc(cc13)-c1c(C)nn(C)c1OC[C@@H](C)N(C1CC1)C2` [Ex. 114, 2-[(11R,17E)-12-cyclopropyl-16-ethoxy-6,8,11-trimethyl-2,8,10,11,12,13-hexahydro-14H-5,3-(azenometheno)tripyrazolo[3,4-f:3′,4′-j:4″,3″-n][1,4]oxazacyclopentadecin-14-yl]ethan-1-ol], the IC50 in test [1] (setting [10]) was 5.67 nM; in test [2], 27.1 nM; in [3] it was 4.87 nM; in [4], 1.66 nM; in test [5] (setting [11]) it was 3.56 nM; in test [6] it was 0.42 nM. Further, the values for the IC50 in test [7], in test [8] and in test [9] (setting [12]) were 3.72 nM, 1.84 nM and 22.2 nM, respectively.

With `Cc1nn(C)c2c1/C=C/c1n[nH]c3c(C)nc(cc13)-c1c(C)nn(C)c1O[C@@H](C)CN(C)C2` [Ex. 103, (10S,17E)-6,8,10,12,14,16,20-heptamethyl-2,10,11,12,13,14-hexahydro-8H-5,3-(azenometheno)tripyrazolo[3,4-f:3′,4′-j:4″,3″-n][1,4]oxazacyclopentadecine], the IC50 in [1] (setting [10]) worked out at 3.44 nM; in test [2], 11.2 nM; in [3], 9.94 nM; in test [4] it was 2.13 nM; in test [5] (setting [11]), 9.78 nM; in test [6], 0.56 nM. Moreover, the IC50 turned out to be 13.6 nM in [7], 1.87 nM in test [8] and 13.4 nM in [9] (setting [12]).

The record behind these values is patent US20260317344A1, “EGFR INHIBITORS FOR TREATING DISEASE” (BLOSSOMHILL THERAPEUTICS, INC., priority 2023, published 2026).
